# Measured values from patent publication US7589080B2, “β-cyclodextrin compositions, and use to prevent transmission of sexually transmitted diseases” (priority 2000, dated 2009).
# What was measured:
# [1] = system: total cellular cholesterol; test: Cellular cholesterol measurement (cholesterol oxidase fluorimetric assay); format: cell-based; settings: 10 to 20 mM for 1 hr at 37° C, then washing
# Procedure: Cellular cholesterol was measured with a sensitive cholesterol oxidase-based fluorimetric assay (Amplex Red Cholesterol Kit) from Molecular Probes (Eugene Oreg.). Cholesterol content of cells was normalized to total cellular protein.
# The role of lipid rafts in the HIV-1 fusion process was examined by treating CD4+HIV-susceptible target cells with 2-OH-βCD to deplete membrane cholesterol and disperse lipid rafts.
# HSV-2 strain G = test: HSV mouse vaginal challenge model; format: in vivo, CD-1 mice; settings: HSV-2 preincubated with 3%, intravaginal 1×10^4 TCID50; p=0.022
# Procedure: The ability of 2-OH-βCD to reduce the infectiousness of HIV-1 (Examples 2 and 3) led to an investigation as to the general applicability of βCDs to prevent the transmission of other sexually transmitted enveloped viruses. A well characterized HSV mouse vaginal challenge model was used to examine the effect of 2-OH-βCD on HSV-2 infection (Sherwood et al., supra, 1996). Adult female CD-1 mice (Charles River Breeding Laboratories; Wilmington Mass.) were injected subcutaneously with Depo-Provera® progestin (2 mg) to increase their sensitivity, then one week later the mice were inoculated intravaginally with 1×10^4 TCID50 of cell-free HSV-2 strain G (10 ID50) using a WIRETROL capillary micropipette (Drummond Scientific; Broomall Pa.). Infection was confirmed by lavage culture on newborn foreskin fibroblast cells (Biowhitaker). Prior to inoculation, HSV-2 was preincubated either with 3% 2-OH-βCD or with buffer.
substance,measurement,setting,value
2-hydroxypropyl-β-cyclodextrin [2-OH-βCD],Depletion of total cellular cholesterol,[1],greater than 70%
same,Mice that became infected,HSV-2 strain G,5 of 10
